In experiment [1] the target is T1, human sGC (Homo sapiens, UniProt Q02153).
T1 sequence (Q02153 1-619): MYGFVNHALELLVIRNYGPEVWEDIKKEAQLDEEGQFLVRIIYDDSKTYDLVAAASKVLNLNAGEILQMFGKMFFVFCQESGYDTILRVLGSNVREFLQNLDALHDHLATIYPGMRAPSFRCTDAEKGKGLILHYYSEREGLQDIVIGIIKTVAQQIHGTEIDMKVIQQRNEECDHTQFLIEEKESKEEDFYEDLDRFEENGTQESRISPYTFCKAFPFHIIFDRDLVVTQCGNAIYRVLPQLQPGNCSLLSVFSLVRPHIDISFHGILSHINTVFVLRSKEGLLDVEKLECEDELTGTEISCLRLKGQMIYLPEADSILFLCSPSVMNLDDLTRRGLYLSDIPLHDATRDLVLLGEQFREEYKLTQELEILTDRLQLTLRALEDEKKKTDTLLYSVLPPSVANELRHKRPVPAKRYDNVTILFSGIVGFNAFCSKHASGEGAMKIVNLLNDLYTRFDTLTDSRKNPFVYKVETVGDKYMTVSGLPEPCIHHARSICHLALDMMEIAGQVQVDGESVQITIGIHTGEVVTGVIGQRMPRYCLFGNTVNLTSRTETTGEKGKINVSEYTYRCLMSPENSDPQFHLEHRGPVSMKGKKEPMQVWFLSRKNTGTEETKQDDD
T1 sequence (Q02108 1-690 partner): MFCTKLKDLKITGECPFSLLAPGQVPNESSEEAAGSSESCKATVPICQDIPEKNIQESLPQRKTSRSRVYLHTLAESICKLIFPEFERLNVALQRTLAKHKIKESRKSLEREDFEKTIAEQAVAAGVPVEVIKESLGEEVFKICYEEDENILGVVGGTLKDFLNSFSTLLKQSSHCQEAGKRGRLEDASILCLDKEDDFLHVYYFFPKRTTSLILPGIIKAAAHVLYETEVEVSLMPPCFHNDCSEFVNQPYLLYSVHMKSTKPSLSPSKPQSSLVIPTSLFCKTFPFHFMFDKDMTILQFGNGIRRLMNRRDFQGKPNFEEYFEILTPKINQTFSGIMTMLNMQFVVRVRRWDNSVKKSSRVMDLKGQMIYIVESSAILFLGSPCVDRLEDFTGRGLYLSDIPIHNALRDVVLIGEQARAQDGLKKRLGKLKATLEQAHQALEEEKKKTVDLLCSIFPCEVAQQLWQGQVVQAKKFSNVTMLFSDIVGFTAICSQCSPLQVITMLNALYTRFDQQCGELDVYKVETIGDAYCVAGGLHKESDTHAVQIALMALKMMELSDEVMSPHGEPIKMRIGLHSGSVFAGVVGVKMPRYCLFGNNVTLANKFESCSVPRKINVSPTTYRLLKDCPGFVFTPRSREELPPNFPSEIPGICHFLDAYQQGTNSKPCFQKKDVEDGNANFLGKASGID
In words: sGC enzyme assay, fluorescence polarisation of labelled cGMP. The following applies: human sGC 1 nM, FP assay; concentration able to increase by 5-fold basal cGMP. It counts as biochemical. How it is done:
The activity of soluble guanylate cyclase (sGC) was tested in an assay based on measuring the fluorescent polarisation (FP) signal of fluorescently labelled cGMP. FP increased on interaction with an anti-cGMP antibody as the motility of the molecule was reduced. Newly produced cGMP displaced the interaction giving rise to a decrease in polarisation and FP signal which was equated to enzyme activity. Compounds were incubated with human sGC, anti-cGMP antibody, the GTP substrate and fluorescently labelled cGMP. After a period of one hour the assay was stopped with the addition of EDTA and after a further hour the assay was read.
Human sGC was thawed and resuspended in assay buffer (100 mM TRIS, 10 mM MgCl2, 0.2 mM Tween 20, pH7.4, containing 1:100 dilution of sheep anti-cGMP) to give final concentration of 1 nM in the well. A substrate solution was prepared containing GTP and 8-fluo-cGMP in de-ionized water to a final concentration of 25 μM and 50 nM respectively. Assay plates containing 5 μL of various test compounds and of a standard agonist (50 μM-50 nM) in 1% DMSO as 6 point, four fold dilutions across a 96 well plate were used in the assay. The plate also contained 6 wells of DMSO (1%) to produce high control and a cGMP standard curve (14 nM to 10 μM) to convert FP data to cGMP concentration. 25 μL of enzyme mix and 20 μl of substrate mix described above were added to each well of the plate. Samples were mixed on an orbital shaker and then incubated at room temperature for 1 hour. After this incubation period 5 μl of 0.5M EDTA was added to all wells and the plates were incubated for a further hour at room temperature prior to reading the FP signal in an appropriate reader. For data handling FP data were converted to cGMP concentrations and then fitted using ActivityBase software. The activity of a test compound was determined as the pEC500 value which is the concentration able to increase by 5-fold basal cGMP.
On the technique in general: Fluorescence polarisation rises when a labelled molecule tumbles more slowly, as on binding a larger partner.

Experiment [2] has as its target T2, soluble guanylate cyclase (sGC) (Rattus norvegicus, UniProt P20595).
T2 construct: endogenous in cells; host or cells: primary rat aortic smooth muscle cells
T2 sequence (P20595 1-619): T1 sequence (Q02153 1-619) with N171S, E205D, N247K, T299A, K615N, D618E, D619N
T2 sequence (P19686 1-690 partner): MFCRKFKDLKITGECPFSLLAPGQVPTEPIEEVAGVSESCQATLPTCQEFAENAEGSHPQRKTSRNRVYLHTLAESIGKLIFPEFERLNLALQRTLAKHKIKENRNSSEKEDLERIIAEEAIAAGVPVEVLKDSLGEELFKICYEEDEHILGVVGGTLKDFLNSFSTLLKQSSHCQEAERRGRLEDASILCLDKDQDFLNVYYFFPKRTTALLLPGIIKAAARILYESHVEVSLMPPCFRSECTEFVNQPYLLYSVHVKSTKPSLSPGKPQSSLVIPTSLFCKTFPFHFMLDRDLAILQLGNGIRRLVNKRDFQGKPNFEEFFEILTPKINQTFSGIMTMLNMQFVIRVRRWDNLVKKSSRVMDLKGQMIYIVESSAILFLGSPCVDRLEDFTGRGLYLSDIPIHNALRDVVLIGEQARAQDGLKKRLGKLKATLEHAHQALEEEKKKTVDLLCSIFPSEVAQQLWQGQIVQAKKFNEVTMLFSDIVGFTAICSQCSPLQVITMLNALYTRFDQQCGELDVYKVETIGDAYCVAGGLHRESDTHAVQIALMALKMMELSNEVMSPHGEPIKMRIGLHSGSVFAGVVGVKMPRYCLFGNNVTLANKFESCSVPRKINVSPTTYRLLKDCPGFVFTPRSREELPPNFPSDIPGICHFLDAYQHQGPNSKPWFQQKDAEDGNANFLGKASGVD
In words: Cellular assay, VASP phosphorylation in rat aortic smooth muscle cells with ODQ. It counts as cell-based. The settings on record: phospho-VASP signal, primary rat aortic smooth muscle cells, 10 μM ODQ, 30 min incubation; 50% vs. Bmax; read-out: Cell assay pEC50 (converted). Here is the method:
The activity of soluble guanylate cyclase (sGC) was tested in an assay based on measuring phosphorylation of the protein kinase G (PKG) substrate vasodilator-stimulated phosphoprotein (VASP) in rat aortic smooth muscle cells. […] Dimethylsulfoxide (DMSO) vehicle and varying concentrations of the compound to be tested were then added. Following a 30 min incubation at 37° C., media was aspirated and the cells were rinsed with phosphate-buffered saline (PBS) and fixed with 4% formaldehyde in PBS by incubating at room temperature for 20 min. Cells were then washed with PBS and permeabilized for 10 min using 0.1% triton X-100 in PBS. Following PBS rinsing, the cells were blocked for 90 min at room temperature with blocking buffer. The buffer was aspirated and the cells were treated overnight at 4° C. with primary antibody (pSer239-VASP, rabbit polyclonal Ab) diluted 1:500 in blocking buffer. Following three washes with 0.05% Tween 20, the cells were treated for 1 h at room temperature with a fluorescent labeled secondary antibody (IRDye® 800CW Donkey Anti-Rabbit IgG) diluted 1:2500 in blocking buffer with 0.05% Tween 20. Following two washes with PBS, infrared fluorescence was measured using an Odyssey Infrared Imaging System. The activity of a test compound was determined as the pEC50 value which is the concentration able to increase by 50% (vs. Bmax) the phospho-VASP fluorescent signal. Front. Pharmacol., 5 Jul. 2012|doi: 10.3389/fphar.2012.00128, Volume 3 July, 2012, Article number 128.

The values below come from patent US20160214956A1, “NOVEL SOLUBLE GUANYLATE CYCLASE ACTIVATORS AND THEIR USE” (GLAXOSMITHKLINE INTELLECTUAL PROPERTY DEVELOPMENT LIMITED, priority 2013, published 2016).

Structures are written as SMILES. Residue numbers refer to the chain shown, from its start. Counter-ions that a name gives are not always drawn.

Turning to `O=C(O)c1cnn(-c2cccc(-c3ccccc3CCc3ccc(OCCCN4CCOCC4)cc3)n2)c1C(F)(F)F` [Example 2, 1-(6-(2-(4-(3-morpholinopropoxy)phenethyl)phenyl)pyridin-2-yl)-5-(trifluoromethyl)-1H-pyrazole-4-carboxylic acid], the “sGC pEC500” value in experiment [1] came out at 6.19.
As for `Cc1cc(OCCCC(F)(F)F)ccc1CCc1ccc(F)cc1-c1cccc(-n2ncc(C(=O)O)c2C(F)(F)F)n1` [Example 13, 1-(6-(5-Fluoro-2-(2-methyl-4-(4,4,4-trifluorobutoxy)phenethyl)phenyl)pyridin-2-yl)-5-(trifluoromethyl)-1H-pyrazole-4-carboxylic acid], the EC50 in experiment [2] is 1.26 nM.
Still for that read-out and setting: the result for `Cc1cc(OCCCn2cccn2)ccc1CCc1ccc(F)cc1-c1cccc(-n2ncc(C(=O)O)c2C(F)(F)F)n1` [Example 14, 1-(6-(2-(4-(3-(1H-pyrazol-1-yl)propoxy)-2-methylphenethyl)-5-fluorophenyl)pyridin-2-yl)-5-(trifluoromethyl)-1H-pyrazole-4-carboxylic acid] reads 1.58 nM; that for `Cc1cc(OCCCn2cc(C#N)cn2)ccc1CCc1ccc(F)cc1-c1cccc(-n2ncc(C(=O)O)c2C(F)(F)F)n1` [Example 15, 1-(6-(2-(4-(3-(4-cyano-1H-pyrazol-1-yl)propoxy)-2-methylphenethyl)-5-fluorophenyl)pyridin-2-yl)-5-(trifluoromethyl)-1H-pyrazole-4-carboxylic acid, sodium salt], 39.8 nM; that for `COc1cnn(CCCOc2ccc(CCc3ccc(F)cc3-c3cccc(-n4ncc(C(=O)O)c4C(F)(F)F)n3)c(C)c2)c1` [Example 16, 1-(6-(5-Fluoro-2-(4-(3-(4-methoxy-1H-pyrazol-1-yl)propoxy)-2-methylphenethyl)phenyl)pyridin-2-yl)-5-(trifluoromethyl)-1H-pyrazole-4-carboxylic acid, sodium salt], 6.31 nM.
For the molecule `Cc1cc(OCCCn2cncn2)ccc1CCc1ccc(F)cc1-c1cccc(-n2ncc(C(=O)O)c2C(F)(F)F)n1` [Example 17, 1-(6-(2-(4-(3-(1H-1,2,4-triazol-1-yl)propoxy)-2-methylphenethyl)-5-fluorophenyl)pyridin-2-yl)-5-(trifluoromethyl)-1H-pyrazole-4-carboxylic acid, sodium salt], the EC50 in experiment [2] was 20 nM.
`Cc1cc(OCCCn2ccc(C#N)n2)ccc1CCc1ccc(F)cc1-c1cccc(-n2ncc(C(=O)O)c2C(F)(F)F)n1` [Example 18, 1-(6-(2-(4-(3-(3-cyano-1H-pyrazol-1-yl)propoxy)-2-methylphenethyl)-5-fluorophenyl)pyridin-2-yl)-5-(trifluoromethyl)-1H-pyrazole-4-carboxylic acid, sodium salt]: in experiment [2], the EC50 is 7.94 nM.
On the same count and under the same terms, the result for `CCOC(=O)c1cnn(-c2cccc(-c3ccccc3CCc3ccc(OCCCC(F)(F)F)cc3C)n2)c1C(F)(F)F` [Example 19, Ethyl 1-(6-(2-(2-methyl-4-(4,4,4-trifluorobutoxy)phenethyl)phenyl)pyridin-2-yl)-5-(trifluoromethyl)-1H-pyrazole-4-carboxylate] reads 251 nM; that for `Cc1cc(OCCCC(F)(F)F)ccc1CCc1ccccc1-c1cccc(-n2ncc(C(=O)O)c2C(F)(F)F)n1` [Example 21, 1-(6-(2-(2-methyl-4-(4,4,4-trifluorobutoxy)phenethyl)phenyl)pyridin-2-yl)-5-(trifluoromethyl)-1H-pyrazole-4-carboxylic acid, sodium salt], 7.94 nM.
Regarding `Cc1cc(OCCCC(F)(F)F)ccc1CCc1ccccc1-c1cccc(-n2ncc(C(=O)OC(C)C)c2C(F)(F)F)n1` [Example 22, Isopropyl 1-(6-(2-(2-methyl-4-(4,4,4-trifluorobutoxy)phenethyl)phenyl)pyridin-2-yl)-5-(trifluoromethyl)-1H-pyrazole-4-carboxylate], in experiment [2], the EC50 is 1260 nM.
